This note sets out measurements from patent US10710994B2, “Oxadiazole transient receptor potential channel inhibitors” (Genentech, Inc., priority 2018, dated 2020).

Structures are written as SMILES. Read-outs that look alike come from different tables or passages of the source.

The assay deals with human TRPA1 channel (Homo sapiens (Human), UniProt O75762). The experiment in a line: hTRPA1 CHO Ca2+ FLIPR Tetra assay: block of cinnamaldehyde induced calcium influx. Conditions: CHO cells expressing TRPA1, Hill coefficient fixed to 1.5. The format is cell-based. How it is done: CHO cells expressing TRPA1 were plated into 384-well plates, incubated overnight at 37° C., and loaded with BD calcium indicator dye for 1 hr at 37° C. followed by 15 minutes at room temperature. The assay buffer was Hank's Balanced Salt Solution (HBSS) containing 20 mM HEPES (pH readjusted to 7.4) along with 0.02% BSA.
Sequence of human TRPA1 channel (O75762 whole entry): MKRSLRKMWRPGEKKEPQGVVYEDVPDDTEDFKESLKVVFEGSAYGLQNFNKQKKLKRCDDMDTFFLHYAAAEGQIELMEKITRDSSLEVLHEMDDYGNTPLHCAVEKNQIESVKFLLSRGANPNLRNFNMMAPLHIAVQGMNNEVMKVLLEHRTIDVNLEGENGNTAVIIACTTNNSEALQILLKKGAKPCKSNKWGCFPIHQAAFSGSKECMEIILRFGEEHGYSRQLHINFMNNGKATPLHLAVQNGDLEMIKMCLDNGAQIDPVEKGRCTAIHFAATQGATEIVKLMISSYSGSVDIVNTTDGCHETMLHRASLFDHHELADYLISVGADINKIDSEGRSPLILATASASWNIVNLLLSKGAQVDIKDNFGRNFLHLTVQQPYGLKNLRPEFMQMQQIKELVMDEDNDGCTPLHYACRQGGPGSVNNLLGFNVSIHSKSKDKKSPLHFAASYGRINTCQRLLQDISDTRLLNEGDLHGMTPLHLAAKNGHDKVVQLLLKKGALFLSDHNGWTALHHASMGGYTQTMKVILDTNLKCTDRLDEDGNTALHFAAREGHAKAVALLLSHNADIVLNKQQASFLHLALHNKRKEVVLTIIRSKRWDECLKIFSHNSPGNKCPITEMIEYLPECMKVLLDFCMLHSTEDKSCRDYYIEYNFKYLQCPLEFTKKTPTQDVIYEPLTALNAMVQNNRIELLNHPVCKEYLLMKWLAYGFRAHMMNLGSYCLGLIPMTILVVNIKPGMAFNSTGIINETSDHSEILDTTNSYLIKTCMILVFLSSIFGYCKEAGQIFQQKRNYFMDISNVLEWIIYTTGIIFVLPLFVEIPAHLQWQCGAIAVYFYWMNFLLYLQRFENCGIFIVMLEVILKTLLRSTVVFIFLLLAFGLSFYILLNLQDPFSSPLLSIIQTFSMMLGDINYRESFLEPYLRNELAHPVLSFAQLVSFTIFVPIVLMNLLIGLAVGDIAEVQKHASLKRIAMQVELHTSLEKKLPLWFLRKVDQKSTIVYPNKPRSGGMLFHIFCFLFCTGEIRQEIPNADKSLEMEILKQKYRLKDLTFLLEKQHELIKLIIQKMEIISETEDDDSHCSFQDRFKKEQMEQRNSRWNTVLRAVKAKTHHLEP
Following dye load and plate cool down, compounds were added to the cells using FLIPR Tetra. Plates were then incubated with compounds for 10 minutes or 90 minutes at room temperature prior to adding agonist. Following this incubation, about an EC80 concentration of cinnamaldehyde […] was added to active the channels and block of cinnamaldehyde induced calcium influx was measured.
Fixing the Hill coefficient will generally reduce variability of the IC50 determination. The IC50 results were individually examined to make sure the MIN and MAX points were set correctly prior to validation of the results.

The mark [1] stands for this setting: hTRPA1 IC50 10 min, 10 minutes incubation with compound before cinnamaldehyde (about EC80).
The mark [2] stands for this setting: read-out: hTRPA1 IC50 10 min, 10 minutes incubation with compound before cinnamaldehyde (about EC80).
Where [3] appears, read: read-out: hTRPA1 IC50 90 min, 90 minutes incubation with compound before cinnamaldehyde (about EC80).

Usually IC50 stands for the concentration needed to halve the response being measured. Turning to `Nc1nc2ncsc2c(=O)n1Cc1nc([C@@H]2CO[C@@H](c3ccc(Cl)cc3)C2)no1` (racemic) [Example 158, 5-amino-6-[[3-[rac-(3R,5R)-5-(4-chlorophenyl)tetrahydro-furan-3-yl]-1,2,4-oxadiazol-5-yl]methyl]thiazolo[4,5-d]pyrimidin-7-one], the IC50 runs as follows: under setting [1], 5.73 nM; (hTRPA1 IC50 90 min, 90 minutes incubation with compound before cinnamaldehyde (about EC80)) 1.4 nM.
For `Cc1cnn2nc(N)n(Cc3nc([C@@H]4CO[C@@H](c5ccc(F)cc5)C4)no3)c(=O)c12` [Example 3, 2-amino-3-((3-((3R,5R)-5-(4-fluorophenyl)tetrahydrofuran-3-yl)-1,2,4-oxadiazol-5-yl)methyl)-5-methylpyrazolo[5,1-f][1,2,4]triazin-4(3H)-one], the IC50 is, setting by setting: under setting [2], 5.02 nM; under setting [3], 1.3 nM.
Turning to `Cn1cnc2[nH]c(=O)n(Cc3nc([C@@H]4CO[C@@H](c5ccc(Cl)cc5)C4)no3)c(=O)c21` [Example 7, 1-((3-((3R, 5R)-5-(4-chlorophenyl)-tetrahydrofuran-3-yl)-1,2,4-oxadiazol-5-yl)methyl)-7-methyl-1H-purine-2,6(3H,7H)-dione], the 50% inhibitory concentration (IC50) under setting [2] was determined as 313 nM and the 50% inhibitory concentration (IC50) under setting [3] turned out to be 23 nM.
Regarding `Cc1nc2ncn(C)c2c(=O)n1Cc1nc([C@@H]2CO[C@@H](c3ccc(Cl)cc3)C2)no1` [Example 8, 1-((3-((3R,5R)-5-(4-chlorophenyl)tetrahydrofuran-3-yl)-1,2,4-oxadiazol-5-yl)methyl)-2,7-dimethyl-1H-purin-6(7H)-one], the half-inhibitory concentration (IC50) by setting is: under setting [1], 9.38 nM; under setting [3], 4.1 nM.
As for `Cn1c(=O)[nH]c2ncn(Cc3nc([C@@H]4CO[C@@H](c5ccc(Cl)cc5)C4)no3)c(=O)c21` [Example 9, 1-((3-((3R, 5R)-5-(4-chlorophenyl)-tetrahydrofuran-3-yl)-1,2,4-oxadiazol-5-yl)methyl)-7-methyl-1H-purine-6,8(7H,9H)-dione], the half-inhibitory concentration (IC50) stood at 40.4 nM under setting [2] and 11 nM under setting [3].
Regarding `Cn1cnc2ncn(Cc3nc([C@@H]4CO[C@@H](c5cccc(F)c5)C4)no3)c(=O)c21` [Example 10, 1-((3-((3R,5R)-5-(3-fluorophenyl)tetra-hydrofuran-3-yl)-1,2,4-oxadiazol-5-yl)methyl)-7-methyl-1,7-dihydro-6H-purin-6-one], the IC50 by setting is: under setting [2], 27.4 nM; under setting [3], 17 nM.
As to `O=c1c2cccnc2cnn1Cc1nc([C@@H]2CO[C@@H](c3ccc(F)cc3)C2)no1` [Example 11, 6-((3-((3R,5R)-5-(4-fluorophenyl)tetra-hydrofuran-3-yl)-1,2,4-oxadiazol-5-yl)methyl)pyrido[2,3-d]pyridazin-5(6H)-one], the half-maximal inhibitory concentration (IC50) is, setting by setting: under setting [2], 16.6 nM; under setting [3], 13 nM.
As for `Cn1nnc2ncn(Cc3nc([C@@H]4CO[C@@H](c5ccc(F)cc5)C4)no3)c(=O)c21` [Example 12, 6-((3-((3R,5R)-5-(4-fluorophenyl)tetra-hydrofuran-3-yl)-1,2,4-oxadiazol-5-yl)methyl)-1-methyl-1,6-dihydro-7H-[1,2,3]triazolo[4,5-d]pyrimidin-7-one], the half-maximal inhibitory concentration (IC50) runs as follows: under setting [2], 7.55 nM; under setting [3], 3.4 nM.
`Cn1cnc2ncn(Cc3nc([C@@H]4CO[C@@H](c5ccccc5)C4)no3)c(=O)c21` [Example 13, 7-methyl-1-((3-((3R,5R)-5-phenyltetrahydrofuran-3-yl)-1,2,4-oxadiazol-5-yl)methyl)-1,7-dihydro-6H-purin-6-one]: the IC50 reads like this: under setting [2], 82.3 nM; under setting [3], 33 nM.
In the case of `Cn1cnc2ncn(Cc3nc([C@@H]4CO[C@@H](c5ccccc5Cl)C4)no3)c(=O)c21` [Example 14, 1-((3-((3R,5R)-5-(2-chlorophenyl)tetra-hydrofuran-3-yl)-1,2,4-oxadiazol-5-yl)methyl)-7-methyl-1,7-dihydro-6H-purin-6-one], the IC50 turned out to be 335 nM under setting [2] and 160 nM under setting [3].
For `Cn1cnc2ncn(Cc3nc([C@@H]4CO[C@@H](c5ccccc5F)C4)no3)c(=O)c21` [Example 15, 1-((3-((3R,5R)-5-(2-fluorophenyl)tetrahydro-furan-3-yl)-1,2,4-oxadiazol-5-yl)methyl)-7-methyl-1,7-dihydro-6H-purin-6-one], the IC50 under setting [2] was found to be 127 nM and the IC50 under setting [3] is 59 nM.
As for `Cn1nnc2ncn(Cc3nc([C@@H]4CO[C@@H](c5ccc(Cl)cc5)C4)no3)c(=O)c21` [Example 16, 6-((3-((3R,5R)-5-(4-chlorophenyl)tetra-hydrofuran-3-yl)-1,2,4-oxadiazol-5-yl)methyl)-1-methyl-1,6-dihydro-7H-[1,2,3]triazolo[4,5-d]pyrimidin-7-one], the concentration for half-maximal inhibition (IC50) under setting [2] stood at 4.9 nM and the IC50 under setting [3] was found to be 2.7 nM.
On to `Cn1cnc2ncn(Cc3nc([C@@H]4CO[C@@H](c5cccc(Cl)c5)C4)no3)c(=O)c21` [Example 17, 1-((3-((3R,5R)-5-(3-chlorophenyl)tetrahydro-furan-3-yl)-1,2,4-oxadiazol-5-yl)methyl)-7-methyl-1,7-dihydro-6H-purin-6-one], for which the IC50 under setting [2] worked out at 29.5 nM and the IC50 under setting [3] was found to be 14 nM.
Take `Cn1cnc2ncn(Cc3nc([C@@H]4CO[C@@H](c5ccc(F)c(F)c5)C4)no3)c(=O)c21` [Example 18, 1-((3-((3R,5R)-5-(3,4-difluorophenyl)tetra-hydrofuran-3-yl)-1,2,4-oxadiazol-5-yl)methyl)-7-methyl-1,7-dihydro-6H-purin-6-one]: the half-maximal inhibitory concentration (IC50) stood at 173 nM under setting [2] and 130 nM under setting [3].
On to `Cn1cnc2ncn(Cc3nc([C@@H]4CO[C@@H](c5ccc(OC(F)F)cc5)C4)no3)c(=O)c21` [Example 19, 1-((3-((3R,5R)-5-(4-(difluoromethoxy)phenyl)tetrahydrofuran-3-yl)-1,2,4-oxadiazol-5-yl)methyl)-7-methyl-1,7-dihydro-6H-purin-6-one], for which the concentration for half-maximal inhibition (IC50) runs as follows: under setting [2], 150 nM; under setting [3], 110 nM.
In the case of `Cc1ccnc2ncn(Cc3nc([C@@H]4CO[C@@H](c5ccc(F)cc5)C4)no3)c(=O)c12` [Example 20, 3-((3-((3R,5R)-5-(4-fluorophenyl)tetrahydro-furan-3-yl)-1,2,4-oxadiazol-5-yl)methyl)-5-methylpyrido[2,3-d]pyrimidin-4(3H)-one], the concentration for half-maximal inhibition (IC50) under setting [2] is 7.05 nM and the IC50 under setting [3] came out at 3.6 nM.
The matching figures for `Cn1cnc2ncn(Cc3nc([C@@H]4CO[C@@H](c5ccc(OC(F)(F)F)cc5)C4)no3)c(=O)c21` [Example 21, 7-methyl-1-((3-((3R,5R)-5-(4-(trifluoromethoxy)phenyl)tetrahydro-furan-3-yl)-1,2,4-oxadiazol-5-yl)methyl)-1,7-dihydro-6H-purin-6-one]: 98.5 nM and 67 nM.
Take `Cn1c(N)nc2ncn(Cc3nc([C@@H]4CO[C@@H](c5ccc(F)cc5)C4)no3)c(=O)c21` [Example 22, 8-amino-1-((3-((3R,5R)-5-(4-fluorophenyl)tetrahydro-furan-3-yl)-1,2,4-oxadiazol-5-yl)methyl)-7-methyl-1,7-dihydro-6H-purin-6-one]: the concentration for half-maximal inhibition (IC50) was found to be 126 nM under setting [2] and 19 nM under setting [3].
On to `Cn1cnc2c(C#N)nn(Cc3nc([C@@H]4CO[C@@H](c5ccc(Cl)cc5)C4)no3)c2c1=O` [Example 23, 1-((3-((3R,5R)-5-(4-chlorophenyl)tetrahydro-furan-3-yl)-1,2,4-oxadiazol-5-yl)methyl)-6-methyl-7-oxo-6,7-dihydro-1H-pyrazolo[4,3-d]pyrimidine-3-carbonitrile], for which the concentration for half-maximal inhibition (IC50) worked out at 45.7 nM under setting [2] and 24 nM under setting [3].
Consider `O=c1c2cccnc2cnn1Cc1nc([C@@H]2CO[C@@H](c3ccc(Cl)cc3)C2)no1` [Example 24, 6-((3-((3R,5R)-5-(4-chlorophenyl)tetrahydro-furan-3-yl)-1,2,4-oxadiazol-5-yl)methyl)pyrido[2,3-d]pyridazin-5(6H)-one], for which the IC50 by setting is: under setting [2], 7.2 nM; under setting [3], 4.9 nM.
As to `O=c1c2cccnc2ncn1Cc1nc([C@@H]2CO[C@@H](c3ccc(Cl)cc3)C2)no1` [Example 25, 3-((3-((3R,5R)-5-(4-chlorophenyl)tetrahydro-furan-3-yl)-1,2,4-oxadiazol-5-yl)methyl)pyrido[2,3-d]pyrimidin-4(3H)-one], the IC50 runs as follows: under setting [2], 6.55 nM; under setting [3], 5.7 nM.
Consider `Cn1c(N)nc2ncn(Cc3nc([C@@H]4CO[C@@H](c5ccc(Cl)cc5)C4)no3)c(=O)c21` [Example 26, 8-amino-1-((3-((3R,5R)-5-(4-chlorophenyl)tetrahydro-furan-3-yl)-1,2,4-oxadiazol-5-yl)methyl)-7-methyl-1,7-dihydro-6H-purin-6-one], for which the IC50 was 58.7 nM under setting [2] and 9.7 nM under setting [3].
In the case of `Cc1ccc([C@H]2C[C@H](c3noc(Cn4cnc5ncn(C)c5c4=O)n3)CO2)cc1` [Example 27, 7-methyl-1-((3-((3R,5R)-5-(p-tolyl)tetrahydrofuran-3-yl)-1,2,4-oxadiazol-5-yl)methyl)-1,7-dihydro-6H-purin-6-one], the IC50 runs as follows: under setting [2], 16.1 nM; under setting [3], 5.7 nM.
